Results: patent publication US20100197789A1, “ANTI-OBESITY AGENT AND USE THEREOF” (National University Corporation Nagoya University, priority 2006, published 2010)

Columns and labels:
[1] = test system: db/db mice; assay: Food intake amount and body weight, 5 week-continuous oral administration in drinking water, db/db mice; assay type: in vivo, mouse; settings: enantiomer 1.1 mg/dl in drinking water, oral, 5 weeks; for body weight increase / food intake amount: vs control
Procedure: 5 week-old male C57BL/KsJ-db/db mice (db/db mice: body weight 19 to 25 g, Japan SLC, Inc.) were purchased and individually fed in tip cages. For the db/db mice, normal pellet diet (CE-2) was administered under free water intake and free food intake. A body weight and a food intake amount over 24 hours were measured every day from the start of feeding. On day 3 after the start of feeding, blood was taken from an orbit after 6 hour-fasting and a blood glucose level and a blood insulin concentration were measured. The db/db mice were divided into three groups (10 mice per each group) so that a body weight, a 24 hour-food intake amount, a blood glucose level, and a blood insulin concentration were equal, and defined to be a control group, a low concentration baclofen treated group, and a high concentration baclofen treated group. After division into the groups, from day 5 after the start of feeding, (±)-baclofen was dissolved in drinking water and 5 week-continuous oral administration to the baclofen treated groups was started. (±)-baclofen was dissolved in drinking water at a concentration of 1.1 mg/dl in the low concentration treated group and at a concentration of 2.7 mg/dl in the high concentration treated group. A food intake amount and a body weight were measured over time during the period of 5 week-administration of (±)-baclofen, blood was taken after the end of the 5-week administration, and the db/db mice were sacrificed by cervical luxation. Brains, epididymal white adipose tissues, subcutaneous white adipose tissues and brown adipose tissues were surgically removed. The brains and brown adipose tissues were frozen in dry ice and liquid nitrogen immediately after the removal and then preserved at −80° C. The epididymal white adipose tissues and subcutaneous white adipose tissues were measured in weights, and then fixed in 4% formaldehyde and preserved at 4° C.
5 week-old male C57BL/KsJ-db/db mice (db/db mice: body weight 19 to 25 g, Japan SLC, Inc.) were purchased and individually fed in tip cages. For the db/db mice, normal pellet diet (CE-2) was administered under free water intake and free food intake. A body weight and a food intake amount over 24 hours were measured everyday from the start of feeding. On day 3 after the start of feeding, blood was taken from an orbit after 6 hour-fasting and a blood glucose level and a blood insulin concentration were measured. […] After division into the groups, from day 5 after the start of feeding, R-baclofen and S-baclofen were dissolved in drinking water and 5 week-continuous oral administration was started. […] A food intake amount and a body weight were measured over time, and a rectal temperature was measured 5 weeks after the start of the administration. Blood was taken after the 5-week administration of baclofen, and the db/db mice were sacrificed by cervical luxation.
5 week-old male C57BL/KsJ-db/db mice (db/db mice: body weight 19 to 25 g, Japan SLC, Inc.) were purchased and individually fed in tip cages. Normal pellet diet (CE-2) was administered to the db/db mice under free water intake and free food intake. A body weight and a food intake amount over 24 hours were measured every day from the start of feeding. On day 3 after the start of feeding, blood was taken from an orbit after 6 hour-fasting, and a blood glucose level and a blood insulin concentration were measured. The db/db mice were divided into five groups (10 mice per each group) so that a body weight, a 24 hour-food intake amount, a blood glucose level, and a blood insulin concentration were equal, and defined to be a control group and baclofen treated groups. (±)-baclofen was dissolved in drinking water at respective concentrations of 4×10^−6 M, 10×10^−6 M, 40×10^−6 M, and 100×10^−6 M, and continuously orally administered to the baclofen treated groups for 5 weeks. A food intake amount, a body weight and a water-drinking amount were measured over time during the period of 5 week-administration of (±)-baclofen. […]

[2] = test system: db/db mice; assay: Rectal temperature, oxygen consumption and motor activity, db/db mice; assay type: in vivo, mouse; settings: enantiomer 1.1 mg/dl in drinking water for 5 weeks, measured at 20 o'clock for 3 days
Procedure: 5 week-old male C57BL/KsJ-db/db mice (db/db mice: body weight 19 to 25 g, Japan SLC, Inc.) were purchased and individually fed in tip cages. For the db/db mice, normal pellet diet (CE-2) was administered under free water intake and free food intake. A body weight and a food intake amount over 24 hours were measured everyday from the start of feeding. On day 3 after the start of feeding, blood was taken from an orbit after 6 hour-fasting and a blood glucose level and a blood insulin concentration were measured. The db/db mice were divided into three groups (10 mice per each group) so that a body weight, a 24 hour-food intake amount, a blood glucose level, and a blood insulin concentration were equal, and defined to be a control group, an R-baclofen treated group, and an S-baclofen treated group. […] After division into the groups, from day 5 after the start of feeding, R-baclofen and S-baclofen were dissolved in drinking water and 5 week-continuous oral administration was started. Both of R-baclofen and S-baclofen were dissolved in drinking water at a concentration of 1.1 mg/dl used in the low concentration treated group in the experiment of baclofen racemic mixture administration. A food intake amount and a body weight were measured over time, and a rectal temperature was measured 5 weeks after the start of the administration. Blood was taken after the 5-week administration of baclofen, and the db/db mice were sacrificed by cervical luxation.
R-baclofen and S-baclofen were administered to db/db/mice and (±)-baclofen was administered to db/^+m mice respectively for 5 weeks, and rectal temperatures were then continuously measured for 3 days at 20 o'clock immediately before the dark period when feed intake was started in the mice. The method of measuring rectal temperatures was as follows. That is, the rectal temperatures were measured by using a digital thermistor (manufactured by NATSUME SEISAKUSHO CO., LTD.).
(±)-baclofen was orally administered to db/db mice and DIO mice for 5 weeks and rectal temperatures were measured 5 weeks after the start of the administration, and oxygen consumptions and motor activity were measured by using a small animal metabolism measuring system (model MK-5000: Muromachi Kikai Co., Ltd.).

Compound	time after start of administration from which body weight increase suppression was significant [1]	time after start of administration from which food intake suppression was significant [1]	body weight increase [1]	food intake amount [1]	rectal temperature [2]
Cl.NC[C@H](CC(=O)O)c1ccc(Cl)cc1 [R-baclofen, R(+)-Baclofen hydrochloride]	2 weeks	2 weeks	significantly suppressed	significantly suppressed	significantly increased
Cl.NC[C@@H](CC(=O)O)c1ccc(Cl)cc1 [S-baclofen, S(−)-Baclofen hydrochloride]	5 weeks	5 weeks	significant suppression	significant suppression	significantly increased
